The target in experiment [1] is T1, KMT9 (Homo sapiens (Human), UniProt Q9Y5N5). The experiment is described as follows: Thermal shift assay of KMT9 upon inhibitor binding. The following applies: thermal shift at 500 μM. The procedure:
For inhibitor testing, 1 μL of the compound, dissolved in DMSO at different concentrations, were added to a 96 well hard-shell PCR plate (Bio-Rad). Afterwards 4 μL of assay buffer (50 mM BTP, 1 mM MgCl2, 1 mM DTT, pH 8.5) were added, followed by 10 μL of 2×KMT9 (final concentration 2 μM) in assay buffer. After addition of 5 μL 4×SYPRO-Orange (Sigma) (final concentration 5×), the plate was spun for 1 min at 700 rpm, then shaken at 600 rpm for 15 minutes. After another […] spinning at 700 rpm for 1 min, measurement was performed using a CFX96 Touch Real-Time PCR Detection System (Bio-Rad). The plate was equilibrated at 20° C. for 4 minutes before heating gradually by 1° C. every 15 seconds until 95° C. After every step, the fluorescence was measured in FRET mode. The thermal shift at 500 μM is detected in K (Kelvin). For Example 9o, the thermal shift at 250 μM is detected in K (Kelvin). The obtained thermal shift obtained by adding the tested compound is shown in the table below as follows: shift ≤5 K is denoted with a “+”, shift >5 and ≤15 K is denoted with “++”, and shift >15 K is denoted with “+++”.

For experiment [2], the target named is T1, KMT9. The experiment is described as follows: Methylation assay to test KMT9-inhibition ([3H]SAM, filter binding, scintillation). The experiment is classed as biochemical. The note with it: ETF1 or histone H4 substrate. The procedure:
Methylation assays were performed to test inhibition of the KMT9 methyltransferase activity by compound 72b. To test the compound, 1 μL of the compound, dissolved in DMSO at different concentrations, was added to a 0.5 ml tube (Brand Gmbh&Co KG). Afterwards, 4 μL of assay buffer (50 mM BTP, 1 mM MgCl2, 1 mM DTT, 0.01% TX-100, pH 8.5) were added together with 10 μL of 2× solution of KMT9 diluted in assay buffer (final concentration 0.025-0.6 μM). The solutions were mixed and incubated for 20 min at room temperature, shaking at 300 rpm. Afterwards, 5 μL of 4× Protein-SAM mix was added (final concentrations: 5 μM ETF1 or histone H4, SAM: 1-2.5 μM (including 30% of radioactively labelled [3H]SAM)) to a final assay volume of 20 μL. The reaction mixtures were mixed and incubated in an Eppendorf thermomixer comfort for 2 h at 30° C., shaking at 300 rpm. The reaction was quenched using 5 μL of 50% trichloroacetic acid (TCA) in water, mixed and incubated for 5 min at room temperature without shaking. […] The scintillation signal was measured for 3×1 min using Tri-Carb 2910 TR (PerkinElmer) scintillation counter in [^3H] […]

Experiment [3] has as its system plurality of methyltransferases including DOT1L. The experiment in a line: Specificity across a plurality of methyltransferases. The experiment is classed as biochemical. The following applies: 10-dose IC50 mode starting at 10 μM, 1 μM SAM. The procedure:
(§1) Compound 72b was further tested against a plurality of methyltransferases as described in the following. […] Reactions were carried out at 1 μM SAM. Curve fits were performed where the enzyme activities at the highest concentration of compounds were less than 65%. […] Compound 72b is referred to as KMI9542321 in the table below.

For experiment [4], the target named is T1, KMT9. The experiment is described as follows: Methyltransferase panel, 10-dose IC50 mode. It counts as biochemical. The following applies: Substrate: Histone H4; 1 μM SAM; read-out: Compound IC50* (M) KMI9542321. On the procedure: as §1
For experiment [5], the target named is T1, KMT9. The experiment in a line: Microscale thermophoresis (MST) KMT9-binding. The following applies: His-tag labelled KMT9 20 nM; read-out: Binding affinity in MST. The procedure:
To determine the binding affinity of the compound to KMT9, microscale thermophoresis (MST) analysis was performed with a NanoTemper Monolith NT.115 instrument (NanoTemper Technologies GmbH). KMT9 was labelled with a RED-Tris-NTA labelling kit (NanoTemper Technologies GmbH) based on the manufacturer's instructions. Buffer including 25 mM HEPES (pH 7.5), 100 mM NaCl, 1 mM DTT and 0.05% Tween was used for the reaction buffer. Varying concentrations of the compound were titrated against His-tag labelled KMT9 proteins (20 nM). Samples were loaded into standard Capillaries (NanoTemper Technologies GmbH) and MST measurements were performed using 40% MST power and 100% LED power. For each set of binding experiments, MST measurement was carried out with Binding Affinity module in MO. Control program under Nano-RED Excitation. Datasets were processed with the MO. Affinity Analysis software (NanoTemper Technologies GmbH).

A further experiment deals with DNMT3a (Homo sapiens (Human), UniProt Q9Y6K1). The experiment is described as follows: Methyltransferase panel, 10-dose IC50 mode. The note with it: Substrate: Lambda DNA; 1 μM SAM; read-out: Control IC50*. It counts as biochemical. On the procedure: as §1
A further experiment addresses MLL3 Complex (Homo sapiens (Human), UniProt Q8NEZ4). The experiment is described as follows: Methyltransferase panel, 10-dose IC50 mode. It counts as biochemical. The note with it: Substrate: Core Histone; 1 μM SAM; read-out: Control IC50*. On the procedure: as §1
Another experiment deals with NRMT1 (Homo sapiens (Human), UniProt Q9BV86). The experiment is described as follows: Methyltransferase panel, 10-dose IC50 mode. The experiment is classed as biochemical. The note with it: Substrate: RCC1; 1 μM SAM; read-out: Control IC50*. The procedure: as §1
The next experiment has as its target DNMT3b (Homo sapiens (Human), UniProt Q9UBC3). The experiment in a line: Methyltransferase panel, 10-dose IC50 mode. It counts as biochemical. The following applies: Substrate: Lambda DNA; 1 μM SAM; read-out: Control IC50*. The procedure:
as §1

Experiment [6] in a line: Methyltransferase panel, 10-dose IC50 mode. It counts as biochemical. The note with it: Substrate: Core Histone; 1 μM SAM; read-out: Control IC50*. The procedure:
as §1

The target in a further experiment is NSD1 (Homo sapiens (Human), UniProt Q96L73). The experiment in a line: Methyltransferase panel, 10-dose IC50 mode. The experiment is classed as biochemical. The following applies: Substrate: Nucleosomes; 1 μM SAM; read-out: Control IC50*. The procedure: as §1
For the next experiment, the target named is NRMT2 (Homo sapiens (Human), UniProt Q5VVY1). The experiment in a line: Methyltransferase panel, 10-dose IC50 mode. The experiment is classed as biochemical. The note with it: Substrate: RCC1; 1 μM SAM; read-out: Control IC50*. The procedure: as §1
For another experiment, the target named is MLL1 Complex (Homo sapiens (Human), UniProt Q03164). The experiment in a line: Methyltransferase panel, 10-dose IC50 mode. The experiment is classed as biochemical. The note with it: Substrate: Nucleosomes; 1 μM SAM; read-out: Control IC50*. The procedure:
as §1

A further experiment deals with PRMT3 (Homo sapiens (Human), UniProt O60678). The experiment is described as follows: Methyltransferase panel, 10-dose IC50 mode. The experiment is classed as biochemical. The note with it: Substrate: Histone H4; 1 μM SAM; read-out: Control IC50*. The procedure: as §1
Another experiment concerns the target SET7/9 (Homo sapiens (Human), UniProt Q8WTS6). The experiment is described as follows: Methyltransferase panel, 10-dose IC50 mode. It counts as biochemical. The note with it: Substrate: Core Histone; 1 μM SAM; read-out: Control IC50*. The procedure: as §1
The next experiment deals with SMYD3 (Homo sapiens (Human), UniProt Q9H7B4). The experiment in a line: Methyltransferase panel, 10-dose IC50 mode. The experiment is classed as biochemical. The note with it: Substrate: MEKK2; 1 μM SAM; read-out: Control IC50*. The procedure: as §1
For another experiment, the target named is SET1b Complex (Homo sapiens (Human), UniProt Q9UPS6). The experiment is described as follows: Methyltransferase panel, 10-dose IC50 mode. The following applies: Substrate: Core Histone; 1 μM SAM; read-out: Control IC50*. The experiment is classed as biochemical. On the procedure:
as §1

For a further experiment, the target named is GLP (Homo sapiens (Human), UniProt Q9H9B1). The experiment is described as follows: Methyltransferase panel, 10-dose IC50 mode. It counts as biochemical. The note with it: Substrate: Histone H3 (1-21); 1 μM SAM; read-out: Control IC50*. On the procedure:
as §1

The target of the next experiment is PRMT6 (Homo sapiens (Human), UniProt Q96LA8). The experiment is described as follows: Methyltransferase panel, 10-dose IC50 mode. The experiment is classed as biochemical. On the procedure:
as §1

In another experiment the target is SETD2 (Homo sapiens (Human), UniProt Q9BYW2). The experiment is described as follows: Methyltransferase panel, 10-dose IC50 mode. The experiment is classed as biochemical. The following applies: Substrate: Nucleosomes; 1 μM SAM; read-out: Control IC50*. The procedure: as §1
In the next experiment the target is SUV39H2 (Homo sapiens (Human), UniProt Q9H5I1). The experiment in a line: Methyltransferase panel, 10-dose IC50 mode. It counts as biochemical. The note with it: Substrate: Histone H3; 1 μM SAM; read-out: Control IC50*. On the procedure:
as §1

For another experiment, the target named is SUV420H1TV2 (Homo sapiens (Human), UniProt Q4FZB7). The experiment in a line: Methyltransferase panel, 10-dose IC50 mode. The following applies: Substrate: Nucleosomes; 1 μM SAM; read-out: Control IC50*. The experiment is classed as biochemical. The procedure:
as §1

In a further experiment the target is DNMT3b/3L (Homo sapiens (Human), UniProt Q9UBC3). The experiment is described as follows: Methyltransferase panel, 10-dose IC50 mode. The note with it: Substrate: Lambda DNA; 1 μM SAM; read-out: Control IC50*. The experiment is classed as biochemical. On the procedure:
as §1

T1 sequence (Q9Y5N5 whole entry): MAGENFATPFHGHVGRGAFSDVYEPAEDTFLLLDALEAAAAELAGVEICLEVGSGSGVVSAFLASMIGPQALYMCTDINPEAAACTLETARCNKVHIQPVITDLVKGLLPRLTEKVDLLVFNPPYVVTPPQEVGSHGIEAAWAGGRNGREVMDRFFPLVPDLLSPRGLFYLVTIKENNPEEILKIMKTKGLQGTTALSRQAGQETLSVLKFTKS
T1 sequence (Q9UI30 whole entry partner): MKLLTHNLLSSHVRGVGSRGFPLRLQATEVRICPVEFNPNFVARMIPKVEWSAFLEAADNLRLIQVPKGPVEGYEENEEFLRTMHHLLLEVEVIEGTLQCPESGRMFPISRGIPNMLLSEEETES
Sequence of SETD2 (Q9BYW2 whole entry): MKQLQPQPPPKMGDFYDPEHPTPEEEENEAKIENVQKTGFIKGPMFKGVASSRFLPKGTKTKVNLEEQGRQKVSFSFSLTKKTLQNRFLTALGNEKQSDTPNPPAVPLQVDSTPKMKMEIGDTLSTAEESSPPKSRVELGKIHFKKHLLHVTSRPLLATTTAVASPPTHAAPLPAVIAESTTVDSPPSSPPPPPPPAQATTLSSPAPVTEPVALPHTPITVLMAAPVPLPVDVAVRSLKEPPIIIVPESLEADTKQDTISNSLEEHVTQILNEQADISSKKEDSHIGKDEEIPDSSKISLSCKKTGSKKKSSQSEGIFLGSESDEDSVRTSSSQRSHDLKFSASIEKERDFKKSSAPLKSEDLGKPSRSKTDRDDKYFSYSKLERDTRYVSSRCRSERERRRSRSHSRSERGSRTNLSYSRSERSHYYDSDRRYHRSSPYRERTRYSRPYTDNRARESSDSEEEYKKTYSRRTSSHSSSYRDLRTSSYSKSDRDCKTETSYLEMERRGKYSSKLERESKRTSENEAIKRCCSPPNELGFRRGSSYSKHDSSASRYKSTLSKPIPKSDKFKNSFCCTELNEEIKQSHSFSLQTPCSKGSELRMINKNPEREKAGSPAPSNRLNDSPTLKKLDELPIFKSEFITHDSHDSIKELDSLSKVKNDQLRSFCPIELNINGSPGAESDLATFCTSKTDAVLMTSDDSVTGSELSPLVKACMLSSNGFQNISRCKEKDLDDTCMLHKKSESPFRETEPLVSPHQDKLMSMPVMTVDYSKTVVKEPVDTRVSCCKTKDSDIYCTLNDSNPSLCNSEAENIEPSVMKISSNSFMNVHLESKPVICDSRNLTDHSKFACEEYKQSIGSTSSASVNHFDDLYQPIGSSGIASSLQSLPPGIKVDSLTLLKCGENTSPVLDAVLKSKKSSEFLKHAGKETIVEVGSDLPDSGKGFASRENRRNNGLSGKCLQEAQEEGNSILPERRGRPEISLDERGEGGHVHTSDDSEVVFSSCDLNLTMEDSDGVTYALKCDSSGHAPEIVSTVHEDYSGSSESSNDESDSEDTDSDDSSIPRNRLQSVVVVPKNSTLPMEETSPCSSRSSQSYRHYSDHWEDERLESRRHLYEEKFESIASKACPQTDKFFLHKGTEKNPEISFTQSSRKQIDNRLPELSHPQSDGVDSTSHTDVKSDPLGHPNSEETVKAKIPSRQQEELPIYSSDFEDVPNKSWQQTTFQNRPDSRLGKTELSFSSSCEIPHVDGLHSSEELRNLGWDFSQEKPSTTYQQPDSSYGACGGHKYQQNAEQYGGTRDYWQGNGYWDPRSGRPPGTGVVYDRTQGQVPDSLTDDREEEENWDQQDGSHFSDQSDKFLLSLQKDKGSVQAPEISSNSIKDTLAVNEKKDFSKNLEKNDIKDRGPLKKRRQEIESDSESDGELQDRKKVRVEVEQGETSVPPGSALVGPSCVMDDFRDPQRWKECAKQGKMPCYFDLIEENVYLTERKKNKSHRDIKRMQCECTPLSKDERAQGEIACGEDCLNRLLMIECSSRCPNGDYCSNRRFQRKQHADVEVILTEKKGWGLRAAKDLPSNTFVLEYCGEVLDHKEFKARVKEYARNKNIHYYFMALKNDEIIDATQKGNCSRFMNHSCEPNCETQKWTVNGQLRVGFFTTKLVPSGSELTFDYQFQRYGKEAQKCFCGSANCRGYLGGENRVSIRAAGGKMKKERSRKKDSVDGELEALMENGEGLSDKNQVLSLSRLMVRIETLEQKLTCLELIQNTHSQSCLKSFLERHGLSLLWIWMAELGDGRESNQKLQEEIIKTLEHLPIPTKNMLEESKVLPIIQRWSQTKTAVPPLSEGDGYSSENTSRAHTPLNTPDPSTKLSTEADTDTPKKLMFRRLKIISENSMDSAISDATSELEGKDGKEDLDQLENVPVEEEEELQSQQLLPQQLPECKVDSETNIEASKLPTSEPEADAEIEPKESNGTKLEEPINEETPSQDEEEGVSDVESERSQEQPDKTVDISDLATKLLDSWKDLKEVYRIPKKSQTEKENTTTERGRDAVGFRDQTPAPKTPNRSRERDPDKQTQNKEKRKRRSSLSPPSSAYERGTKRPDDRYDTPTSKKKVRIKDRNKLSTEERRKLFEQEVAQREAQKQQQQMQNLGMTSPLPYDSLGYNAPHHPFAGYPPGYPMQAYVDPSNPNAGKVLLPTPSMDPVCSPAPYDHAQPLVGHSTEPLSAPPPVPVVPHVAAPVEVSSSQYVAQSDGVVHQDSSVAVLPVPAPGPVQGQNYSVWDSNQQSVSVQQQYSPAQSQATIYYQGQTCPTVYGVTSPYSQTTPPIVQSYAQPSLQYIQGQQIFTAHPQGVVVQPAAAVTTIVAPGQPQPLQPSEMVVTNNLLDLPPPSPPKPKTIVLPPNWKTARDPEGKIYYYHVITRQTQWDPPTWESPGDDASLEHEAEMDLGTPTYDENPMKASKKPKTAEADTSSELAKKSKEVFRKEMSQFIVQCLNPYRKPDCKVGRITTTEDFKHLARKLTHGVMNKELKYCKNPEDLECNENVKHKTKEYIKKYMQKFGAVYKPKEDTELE
Sequence of NRMT1 (Q9BV86 whole entry): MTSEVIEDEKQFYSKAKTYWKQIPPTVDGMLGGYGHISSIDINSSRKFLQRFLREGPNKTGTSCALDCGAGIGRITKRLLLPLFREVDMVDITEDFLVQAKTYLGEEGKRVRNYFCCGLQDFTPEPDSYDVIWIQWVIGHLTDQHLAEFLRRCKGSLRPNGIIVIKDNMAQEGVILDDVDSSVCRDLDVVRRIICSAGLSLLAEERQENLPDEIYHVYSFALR
Sequence of NRMT2 (Q5VVY1 whole entry): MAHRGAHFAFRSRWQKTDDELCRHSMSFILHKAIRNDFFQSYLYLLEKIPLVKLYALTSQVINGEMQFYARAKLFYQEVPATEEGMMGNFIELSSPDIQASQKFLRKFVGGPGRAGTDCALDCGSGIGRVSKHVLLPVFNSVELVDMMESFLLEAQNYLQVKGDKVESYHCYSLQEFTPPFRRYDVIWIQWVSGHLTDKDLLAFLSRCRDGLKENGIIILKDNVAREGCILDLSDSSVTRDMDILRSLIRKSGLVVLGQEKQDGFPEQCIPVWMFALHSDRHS
Sequence of SET7/9 (Q8WTS6 whole entry): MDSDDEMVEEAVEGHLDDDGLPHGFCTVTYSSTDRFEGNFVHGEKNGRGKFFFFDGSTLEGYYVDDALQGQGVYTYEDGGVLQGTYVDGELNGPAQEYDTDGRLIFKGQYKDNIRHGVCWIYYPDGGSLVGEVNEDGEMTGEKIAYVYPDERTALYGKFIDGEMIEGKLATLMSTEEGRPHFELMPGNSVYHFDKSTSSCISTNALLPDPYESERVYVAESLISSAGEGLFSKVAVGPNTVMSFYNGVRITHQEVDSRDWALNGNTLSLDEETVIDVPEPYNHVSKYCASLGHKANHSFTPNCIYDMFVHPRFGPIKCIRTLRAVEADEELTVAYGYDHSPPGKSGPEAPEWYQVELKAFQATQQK
Sequence of SMYD3 (Q9H7B4 whole entry): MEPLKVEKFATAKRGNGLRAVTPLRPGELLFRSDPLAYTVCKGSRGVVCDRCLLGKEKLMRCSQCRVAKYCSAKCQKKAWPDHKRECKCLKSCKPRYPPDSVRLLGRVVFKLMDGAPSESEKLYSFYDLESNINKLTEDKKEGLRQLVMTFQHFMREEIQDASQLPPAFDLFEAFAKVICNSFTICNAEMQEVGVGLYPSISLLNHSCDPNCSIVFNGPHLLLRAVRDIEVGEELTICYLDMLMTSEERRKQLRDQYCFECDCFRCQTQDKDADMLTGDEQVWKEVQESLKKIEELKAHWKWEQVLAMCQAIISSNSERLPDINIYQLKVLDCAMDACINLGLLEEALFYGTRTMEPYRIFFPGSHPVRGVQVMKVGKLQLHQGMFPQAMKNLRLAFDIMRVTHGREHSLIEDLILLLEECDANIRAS
Sequence of SUV39H2 (Q9H5I1 whole entry): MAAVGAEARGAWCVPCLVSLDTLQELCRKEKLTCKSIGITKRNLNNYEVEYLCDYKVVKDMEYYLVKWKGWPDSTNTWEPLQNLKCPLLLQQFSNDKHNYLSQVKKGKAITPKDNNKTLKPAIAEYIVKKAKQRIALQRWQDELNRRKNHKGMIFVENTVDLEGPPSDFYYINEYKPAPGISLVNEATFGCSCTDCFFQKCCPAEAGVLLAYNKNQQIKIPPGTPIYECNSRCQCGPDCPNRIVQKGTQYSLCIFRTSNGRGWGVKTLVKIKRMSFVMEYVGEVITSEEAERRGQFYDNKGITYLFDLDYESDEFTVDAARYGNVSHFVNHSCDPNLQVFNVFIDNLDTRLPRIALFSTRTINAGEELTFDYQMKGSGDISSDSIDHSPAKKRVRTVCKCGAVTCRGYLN
Sequence of SUV420H1TV2 (Q4FZB7 other isoform, or with tags, fused parts or gaps): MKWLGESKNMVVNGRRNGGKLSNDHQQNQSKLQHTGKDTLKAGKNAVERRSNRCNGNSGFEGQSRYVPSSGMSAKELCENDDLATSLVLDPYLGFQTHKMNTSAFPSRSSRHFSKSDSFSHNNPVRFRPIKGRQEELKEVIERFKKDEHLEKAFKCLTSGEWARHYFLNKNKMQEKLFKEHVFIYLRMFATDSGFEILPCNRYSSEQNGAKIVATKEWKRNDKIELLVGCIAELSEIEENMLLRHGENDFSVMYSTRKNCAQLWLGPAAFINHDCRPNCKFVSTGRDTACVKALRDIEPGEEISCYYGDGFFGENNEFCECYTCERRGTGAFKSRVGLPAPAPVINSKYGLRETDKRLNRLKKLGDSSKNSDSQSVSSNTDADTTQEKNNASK

As for `CNc1ncnc2c1ccn2[C@@H]1C[C@H](CN(CCCNCCc2ccccc2)CC[C@H](N)C(=O)O)[C@@H](O)[C@H]1O` [Compound 72b, (S)-2-amino-4-((((1R,2R,3S,4R)-2,3-dihydroxy-4-(4-(methylamino)-7H-pyrrolo[2,3-d]pyrimidin-7-yl)cyclopentyl)methyl)(3-(phenethylamino)propyl)amino)butanoic acid], the ΔTm at 500 µM on KMT9 [1] lay in the range of 5 to 15 °C. Besides, the 50% inhibitory concentration (IC50) at KMT9 [2] was less than 100 nM; at KMT9 [4] it was 2e-07 M. The “specificity for KMT9-inhibition versus other methyltransferases” value in experiment [3] was “specific for KMT9-inhibition”. Further, the Kd on KMT9 [5] was less than 100 nM.
Regarding `Nc1ncnc2c1ncn2[C@@H]1O[C@H](CSCC[C@H](N)C(=O)O)[C@@H](O)[C@H]1O` [SAH, S-(5′-Adenosyl)-L-homocysteine], the IC50 on DNMT3a turned out to be 329 nM; at MLL3 Complex it was 25400 nM; on NRMT1, 1070 nM; at DNMT3b, 35.2 nM; in [6], 26400 nM; at NSD1, 4330 nM. For the same compound, the concentration for half-maximal inhibition (IC50) was determined as 643 nM at NRMT2; 1170 nM on MLL1 Complex; 1880 nM on PRMT3; 281000 nM at SET7/9; 12900 nM on SMYD3; 5270 nM on SET1b Complex. Besides, the IC50 at GLP was found to be 1210 nM; against PRMT6, 199 nM; on SETD2, 4080 nM; on SUV39H2 it was 102000 nM; on SUV420H1TV2, 139000 nM; on DNMT3b/3L, 32.1 nM.

For the origin of these results see patent US12357680B2, “Inhibition of histone methyl transferases to treat cancer” (Albert-Ludwigs-Universitat Freiburg, priority 2018, dated 2025).
